Results published in ChEMBL document CHEMBL1131738, “Rational design of N-[2-(2,5-dimethoxyphenylethyl)]-N'-[2-(5-bromopyridyl)]-thiourea (HI-236) as a potent non-nucleoside inhibitor of drug-resistant human immunodeficiency virus” (Bioorg Med Chem Lett, 1999).

Legend:
[1] = Inhibitory activity of compound on p24 production in peripheral blood mononuclear cells infected with HIV strain RT-MDR.; format: functional; settings: Homo sapiens
[2] = Inhibitory activity of compound on p24 production in peripheral blood mononuclear cells infected with HIV strain A17 variant.; format: functional; settings: Homo sapiens
[3] = Inhibitory activity of compound on p24 production in peripheral blood mononuclear cells infected with HIV strain A17.; format: functional; settings: Homo sapiens
[4] = Inhibitory activity of compound on p24 production in peripheral blood mononuclear cells infected with HIV strain HTLV IIIB wild type.; format: functional; settings: Homo sapiens
[5] = biological target: Human immunodeficiency virus type 1 reverse transcriptase (Human immunodeficiency virus 1, UniProt Q72547); assay: Inhibition of purified recombinant HIV-1 reverse transcriptase
[6] = Inhibitory activity of compound won p24 production in peripheral blood mononuclear cells infected with HIV strain HTLV IIIB wild type.; format: functional; settings: Homo sapiens

Row | IC50 [5] | Compound | IC50 [1] | IC50 [2] | IC50 [3] | IC50 [4] | IC50 [6]
1 | 6400 nM | Fc1ccc(CCNC(=S)Nc2ccc(Br)cn2)cc1 | – | – | – | – | –
2 | 3700 nM | S=C(NCCC1=CCCCC1)Nc1ccc(Cl)cn1 | – | – | – | 3 nM | –
3 | 700 nM | Fc1cccc(CCNC(=S)Nc2ccc(Br)cn2)c1 | 20 nM | – | – | < 1 nM | –
4 | 700 nM | S=C(NCCc1ccccc1Cl)Nc1ccc(Br)cn1 | 4 nM | – | – | < 10 nM | –
5 | – | CC(C)Nc1cccnc1N1CCN(C(=O)c2cc3cc(NS(C)(=O)=O)ccc3[nH]2)CC1 [DELAVIRDINE] | 400 nM | > 100000 nM | 50000 nM | 9 nM | –
6 | – | Cc1ccnc2c1NC(=O)c1cccnc1N2C1CC1 [NEVIRAPINE] | 5000 nM | > 100000 nM | > 100000 nM | – | 34 nM
7 | – | S=C(NCCc1ccccn1)Nc1ccc(Br)cn1 [TROVIRDINE] | 20 nM | – | – | 7 nM | –
8 | – | Cc1cn([C@H]2C[C@H](N=[N+]=[N-])[C@@H](CO)O2)c(=O)[nH]c1=O [ZIDOVUDINE] | 150 nM | 4 nM | 6 nM | 4 nM | –

Row | Compound | IC50 [5] | IC50 [1] | IC50 [2] | IC50 [3] | IC50 [4] | IC50 [6]
9 | COc1ccc(OC)c(CCNC(=S)Nc2ccc(Br)cn2)c1 | 100 nM | 5 nM | 11000 nM | 100 nM | < 1 nM | –
10 | Fc1ccccc1CCNC(=S)Nc1ccc(Br)cn1 | 600 nM | 5 nM | 41000 nM | 200 nM | < 10 nM | –
11 | CCOCn1c(Cc2ccccc2)c(C(C)C)c(=O)[nH]c1=O [EMIVIRINE] | 800 nM | 300 nM | – | – | – | –
